Test results: patent US20250123282A1, “METHODS FOR EVALUATION AND TREATMENT OF TYROSINE KINASE INHIBITOR (TKI)-RESISTANT ACUTE MYELOID LEUKEMIA” (LOMA LINDA UNIVERSITY, priority 2021, published 2025)

Legend:
[1] = test system: MV4-11 cells; assay: Human cytokine proteome profile array of cell-free supernatants from GILT-treated MV4-11; type: cell-based; conditions: 80 nM GILT, MV4-11, vs non-treatment control
Description: To identify the protein(s) responsible for initiation of the survival mechanism and subsequent proliferation of AML blasts, human cytokine proteome profile arrays of cell-free supernatants from GILT-treated MV4-11's cultures were performed. […] Under the no treatment (No Tx) condition, MV4-11 releases numerous cytokines such as MIF in their supernatant; however, one dose of GILT-treatment eliminated release of a variety of cytokines such as osteopontin (arrows, FIG. 7A), a protein closely associated with adverse prognosis in AML patients. Next, bone marrow mononuclear cells (BMMNC) from AML patients were treated for 3 days ex vivo.
Proteomics and Blotting Analysis. Three days after the one dose treatment, the cell-free supernatants were collected for human cytokine profile assay. The Human XL Cytokine Array Kit (Catalog #ARY022B, R&D) was used according to the manufacturer's procedures and exposed to X-ray film (<10 minutes). Profiles of mean spot pixel density were created using a transmission-mode scanner and Image J analysis software.

[2] = test system: MV4-11 blasts; assay: GILT combined with MIF inhibitor or CXCR2 inhibitor on MV4-11 blasts in vitro (FACS); type: cell-based, human; conditions: 80 nM GILT, 50 uM SB225002, 3 days
Description: Whether targeting the MIF-CXCR2 signaling pathway would effectively treat AML blasts were investigated. First, the combination of GILT with ribosomal protein S19 (RPS19) on MV4-11 blasts was tested in vitro. RPS19, a MIF inhibitor, has been reported to suppress cisplatin-activated MIF-CD74-NFκB signaling pathway in acute kidney injury. […] The combination of 80 nM GILT with 50 uM SB225002, a CXCR2-inhibitor (CXCR2-I) on MV4-11 blasts in vitro were examined. […] The anti-leukemic effect of combining GILT with CXCR2-I on primary BMMNC ex vivo were examined. […] There may be alternative cytokine pathways compensating for the defect of MIF-CXCR2 pathways.
For MIF in vitro experiments, different doses of MIF were added to 1 ml of 1×10^6 MV4-11 cells or RAW264.7 cells for each experimental group in 24-well plates. Two days after the one dose treatment, cells were then collected for either analyses by FACS and qPCR. As combination agents to treat blasts in vitro or ex vivo, one dose of 80 nM GILT with one dose of different inhibitors were added to 1 ml of 1×10^6 MV4-11 cells or 1 ml of 0.5-1×10^6 primary AML BMMNC for each experimental group in 24-well plates. Dose-dependent experiments of CXCR2 inhibitor and NFκB inhibitor with or without 80 nM GILT were performed. […] Three days after the one dose treatment, cells were then collected for either analyses by FACS and qPCR.
(§1) Flow Cytometry (FACS). Cells were harvested and examined for the expression of cell surface biomarkers (CD) and intracellular proteins by multichromatic FACS as previously described. About 1×10^4˜10^6 cells in 100 μl FACS buffer (PBS containing 1% FBS and 0.05% sodium azide) were stained with various fluorescence-conjugated antibodies specific for the desired cell surface proteins at 4° C. for 30 min. The surface-stained cells were then fixed and permeabilized using the appropriate reagents (e.g. the BD Pharmingen Cytofix/Cytoperm buffer) and stained with different fluorescence-conjugated antibodies specific for the desired intracellular proteins at 4° C. for 2 hours in the permeabilizing buffer (e.g. the BD Perm/Wash buffer). Concentrations of the Abs were used per the manufacturers' recommendations. Finally, the cells were washed twice in the permeabilizing buffer and twice in the FACS buffer before being analyzed on the BD FACSAria II. Data was analyzed using the FlowJo software (Tree Star Inc., Ashland, OR).

[3] = test system: MV4-11; assay: GILT-based combinatory treatments for MV4-11 in vitro (synergy, relapse, FACS, imaging); type: cell-based, human
Excerpt: FLT3, the most frequently mutated gene in AML patients, is often associated with poorer overall survival with an increased risk of relapse. However, the anti-leukemic effects of the latest FLT3 inhibitors as monotherapy or in combination with standard treatments are constrained by a short duration of response and a high rate of relapse. Accordingly, whether targeting the compensation pathways along with administration of FLT3 inhibitors, e.g., GILT, prevents relapse. A list of the in vitro trials of GILT in combination with inhibitors (commercially available) targeting new pathways on MV4-11 is provided in Table 1. […]
as §1, with “Cells were harvested and examined for the expression of cell surface biomarkers (CD) and intracellular proteins by multichromatic FACS as previously described.” left out, “Concentrations of the Abs were used per the manufacturers' recommendations.” left out, “Data was analyzed using the FlowJo software (Tree Star Inc., Ashland, OR).” left out

CCc1nc(C(N)=O)c(Nc2ccc(N3CCC(N4CCN(C)CC4)CC3)c(OC)c2)nc1NC1CCOCC1 [GILT, Gilteritinib]
MIF increase in the supernatant (mean pixel density) [1]: 2.6 fold | percentage of viable CD44+ MV4-11 blasts [2]: 12.2% | percentage of Ki67+CD44+ blasts ([2]; MV4-11): 12.2% | population of viable blasts (FACS) ([3]; MV4-11, 3 days after combination treatment): 26.9% | viable Ki67+CD33+CD44+ cells (cell number count) ([3]; MV4-11, 7 days after combination treatment): 180 cells
